The text below walks through data of US20070032529A1, “Pyrazole compounds and their use as antidiabetes agents” (Japan Tobacco Inc., priority 2005, published 2007).

The target of the test is T1, recombinant human liver glycogen phosphorylase (Homo sapiens, UniProt P06737).
T1 construct: made in house; host or cells: Sf9 insect cells (crude homogenate, diluted, used as the enzyme solution)
T1 sequence (P06737 1-847): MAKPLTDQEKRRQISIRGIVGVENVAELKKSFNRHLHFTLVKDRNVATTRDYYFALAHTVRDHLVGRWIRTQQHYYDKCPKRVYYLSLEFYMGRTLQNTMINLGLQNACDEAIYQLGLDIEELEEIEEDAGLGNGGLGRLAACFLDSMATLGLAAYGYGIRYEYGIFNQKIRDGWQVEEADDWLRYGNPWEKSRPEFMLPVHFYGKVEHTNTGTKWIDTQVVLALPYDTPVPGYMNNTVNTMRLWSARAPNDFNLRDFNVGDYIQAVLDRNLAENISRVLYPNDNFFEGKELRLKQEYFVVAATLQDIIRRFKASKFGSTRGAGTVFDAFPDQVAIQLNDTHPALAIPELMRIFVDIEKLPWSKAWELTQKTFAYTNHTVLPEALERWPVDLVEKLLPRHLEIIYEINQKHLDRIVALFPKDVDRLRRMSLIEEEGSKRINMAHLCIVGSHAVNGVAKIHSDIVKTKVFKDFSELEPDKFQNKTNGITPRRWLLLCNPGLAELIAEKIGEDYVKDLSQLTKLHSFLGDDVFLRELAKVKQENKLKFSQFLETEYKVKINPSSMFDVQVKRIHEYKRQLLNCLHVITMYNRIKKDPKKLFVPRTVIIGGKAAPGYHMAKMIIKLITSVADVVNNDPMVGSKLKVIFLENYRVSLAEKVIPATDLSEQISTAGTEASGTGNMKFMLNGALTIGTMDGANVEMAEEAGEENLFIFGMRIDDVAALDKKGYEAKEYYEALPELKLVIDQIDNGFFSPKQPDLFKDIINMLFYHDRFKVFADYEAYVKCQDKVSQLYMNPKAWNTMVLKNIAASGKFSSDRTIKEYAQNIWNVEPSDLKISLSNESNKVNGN
The experiment in a line: Measuring liver glycogen phosphorylase activity (forward reaction system, NADPH absorbance at 340 nm). In kind it is biochemical. As for the experimental part: [Pharmacological Test] 1. Exemplary Test (1) Method for Measuring Liver Glycogen Phosphorylase Activity
The measurement of glycogen phosphorylase activity was carried out by a method using the forward reaction system.
The measurement of glycogen phosphorylase activity using the forward reaction system was carried out as follows. Glucose-1-phosphate prepared from glycogen by glycogen phosphorylase was converted into glucono-δ-lactone 6-phosphate through transphosphorylation and dehydrogenation using phosphoglucomutase and glucose-6-phosphate dehydrogenase (G6PDH). NADPH generated from NADP during the dehydrogenation by G6PDH was detected.
A homogenate of the Sf9 cells which expressed exogenously recombinant human liver glycogen phosphorylase was diluted with 100 mmol/LBES buffer solution (pH 6.8, containing 2 mmol/L EDTA) and the dilution was used as the enzyme solution of human liver glycogen phosphorylase. As the substrate, a phosphate buffer (containing 16 mmol/L KH2PO4, 24 mmol/L Na2HPO4) was used. A mixture of 8 U/mL phosphoglucomutase and 60 U/mL G6PDH was prepared in BES buffer solution. Buffer solution (containing 1.4 mmol/L NADP, 30 mmol/L MgCl2, 8 μmol/L glucose-1,6-diphosphate, 8 mg/mL glycogen, 40 mmol/LBES, 0.8 mmol/L EDTA) for reaction and a glucose solution (containing 75 mmol/L glucose, 100 mmol/LBES, 2 mmol/L EDTA) were prepared individually. The test compound was dissolved in 1% DMSO solution.
The enzymatic reaction was begun by adding 20 μL of the recombinant human liver glycogen phosphorylase solution and 20 μL of the mixture of phosphoglucomutase and G6PDH to the mixture of 20 μL of the glucose solution, 20 μL of the substrate, 100 μL of the buffer solution for reaction and 20 μL of the test compound solution. As control, 1% DMSO solution was added instead of the test compound. The mixture without the substrate was used as blank. The absorbance at 340 nm was measured immediately after the reaction started. The absorbance at 340 nm was measured again after reacting at room temperature for 75 minutes. The enzymatic activity is a value obtained by subtracting the blank variation in absorbance over 75 minutes from the variation in absorbance over 75 minutes.
The inhibition rate (%) of the test compound was calculated by the expression “(1-enzymatic activity of test compound/enzymatic activity of control)×100.”
A linear equation was determined from the two concentration points with the 50% inhibition rate therebetween, and the IC50 value was calculated from the concentration at the intersection of the line with the 50% inhibition rate.
“IC50” in the tables indicates the above-described enzyme inhibitory activity with respect to liver glycogen phosphorylase, and the activity to inhibit liver glycogen phosphorylase was represented as ++ when the IC50 value (nmol/L) was less than 100 nmol/L, as + when the IC50 value was between 100 nmol/L and 300 nmol/L. When IC50 is 300 nmol/L or more, an inhibition rate (%) at a certain concentration of the compound (I) of the present invention is shown in Tables. For example, when the inhibition rate is 20% at a concentration of 300 nmol, the rate is described as 20% (300).

[1] abbreviates: enzyme inhibitory activity with respect to liver glycogen phosphorylase, class symbols.
The mark [2] stands for this setting: human liver glycogen phosphorylase, class symbol.
Where [3] appears, read: compound concentration 300 nmol (in parentheses), read-out: inhibition rate (%) at a certain concentration.
The mark [4] stands for this setting: compound concentration 100 nmol (in parentheses), read-out: inhibition rate (%) at a certain concentration.

Where two headings read alike, the source gives them in different places.

For `O=C(NC(c1ccccc1)c1ccccc1)c1cc(NC(=O)c2cc(F)c(F)cc2Cl)[nH]n1` [Example 3-19], for the setting “compound concentration 1000 nmol (in parentheses), read-out: inhibition rate (%) at a certain concentration”, the inhibition at 1 µM was determined as 9.2%.
One may read the IC50 as the concentration that gives 50% inhibition. As to `O=C(NCCN1CCOCC1)c1cccc(CNC(=O)c2cc(NC(=O)c3cc(F)c(F)cc3Cl)[nH]n2)c1` [Example 5-11], the IC50 under setting [1] was < 100 nM.
On to `O=C(NCc1ccc(Cl)s1)c1cc(NC(=O)c2cc(F)c(F)cc2Cl)[nH]n1` [Example 1-156], for which, under setting [1], the IC50 was < 100 nM.
`N=C(Nc1cccc(CNC(=O)c2cc(NC(=O)c3cc(F)c(F)cc3Cl)[nH]n2)c1)c1ccccc1F` [Example 6-34]: under setting [2], the IC50 is < 100 nM.
Turning to `O=C(O)CCN(C(=O)c1cc(NC(=O)c2cc(F)c(F)cc2Cl)[nH]n1)c1ccccc1` [Example 4-27], under setting [1], the IC50 lay within 100 to 300 nM.
As to `CN(Cc1ccccc1)C(=O)c1cc(NC(=O)c2cc(F)c(F)cc2Cl)[nH]n1` [Example 3-1, 5-(2-chloro-4,5-difluoro-benzoylamino)-1H-pyrazole-3-carboxylic acid benzyl-methyl-amide], where the note is “compound concentration 490 nmol (in parentheses), read-out: inhibition rate (%) at a certain concentration”, the inhibition at 0.49 µM came out at 50%.
As for `CCCCN(C(=O)c1cc(NC(=O)c2cc(F)c(F)cc2Cl)[nH]n1)C1CCC(C(=O)OC(C)(C)C)CC1` (stereo not drawn) [Example 1-104], under setting [3], the inhibition at 0.3 µM turned out to be 32.3%.
On to `O=C(Nc1cccc2cnccc12)c1cc(NC(=O)c2cc(F)c(F)cc2Cl)[nH]n1` [Example 1-147], for which, under setting [4], the inhibition at 0.1 µM worked out at 9.6%.
As for `CC(=Nc1ccc(CNC(=O)c2cc(NC(=O)c3cc(F)c(F)cc3Cl)[nH]n2)cc1)N(C)C` [Example 6-26], the IC50 under setting [2] was < 100 nM.
For `O=C(NCc1ccccc1)c1cc(NC(=O)c2cc(F)ccc2C(F)(F)F)[nH]n1` [Example 4-33], the inhibition at 0.3 µM under setting [3] turned out to be 15.2%.
In the case of `O=C(N[C@H]1c2ccccc2C[C@H]1O)c1cc(NC(=O)c2cc(F)c(F)cc2Cl)[nH]n1` [Example 2-31], the inhibition at 0.1 µM under setting [4] is 5.5%.
Regarding `CCNC(=O)c1ccc(CNC(=O)c2cc(NC(=O)c3cc(F)c(F)cc3Cl)[nH]n2)cc1` [Example 1-120], the IC50 under setting [1] was < 100 nM.
For the compound `COCCN(C)C(=O)c1cc(NC(=O)c2cc(F)c(F)cc2Cl)[nH]n1` [Example 1-6], the IC50 under setting [1] fell in the range of 100 to 300 nM.
For the compound `O=C(NCCc1ccccc1)c1cc(NC(=O)c2cc(F)c(F)cc2Cl)[nH]n1` [Example 3-9], where the note is “compound concentration 480 nmol (in parentheses), read-out: inhibition rate (%) at a certain concentration”, the inhibition at 0.48 µM was determined as 50%.
`CCc1ccc(CNC(=O)c2cc(NC(=O)c3cc(F)c(F)cc3Cl)[nH]n2)cc1` [Example 1-34]: the IC50 under setting [1] was < 100 nM.
Take `COC(=O)COc1ccccc1CNC(=O)c1cc(NC(=O)c2cc(F)c(F)cc2Cl)[nH]n1` [Example 3-47]: under setting [1], the IC50 is < 100 nM.
Still for that read-out and setting: next, `CS(=O)(=O)Nc1ccc(CNC(=O)c2cc(NC(=O)c3cc(F)c(F)cc3Cl)[nH]n2)cc1` [Example 2-16]: < 100 nM.
For `CCCCN(C(=O)c1cc(NC(=O)c2cc(F)c(F)cc2Cl)[nH]n1)C1CC[S+]([O-])CC1` (stereo not drawn) [Example 1-115], the inhibition at 0.3 µM under setting [3] stood at 39.7%.
As to `Cc1cc(F)c(F)cc1C(=O)Nc1cc(C(=O)NCc2ccnc(C#N)c2)n[nH]1` [Example 7-15], the IC50 under setting [2] was < 100 nM.
On to `COCCN(Cc1ccccc1)C(=O)c1cc(NC(=O)c2cc(F)c(F)cc2Cl)[nH]n1` [Example 1-108], for which the inhibition at 0.3 µM under setting [3] is 45.3%.
On to `CC(NC(=O)c1cc(NC(=O)c2cc(F)c(F)cc2Cl)[nH]n1)c1cccnc1` (stereo not drawn) [Example 2-26], for which the inhibition at 0.1 µM under setting [4] is 36.4%.
With `CN(C)c1ccccc1CNC(=O)c1cc(NC(=O)c2cc(F)c(F)cc2Cl)[nH]n1` [Example 1-10], under setting [1], the IC50 lay in the range of 100 to 300 nM.
Turning to `CCCCN(C(=O)c1cc(NC(=O)c2cc(F)c(F)cc2Cl)[nH]n1)C1CCN(S(C)(=O)=O)CC1` [Example 1-111], the IC50 under setting [1] is 100 to 300 nM.
In the case of `O=C(NCCc1cccnc1)c1cc(NC(=O)c2cc(F)c(F)cc2Cl)[nH]n1` [Example 1-140], the inhibition at 0.1 µM under setting [4] was determined as 30.8%.
Turning to `COC(=O)CNC(=O)c1ccc(CNC(=O)c2cc(NC(=O)c3cc(F)c(F)cc3Cl)[nH]n2)cc1` [Example 1-43], the IC50 under setting [1] is < 100 nM.
Regarding `CN(C)C(=O)c1ccc(N(C)C(=O)c2cc(NC(=O)c3cc(F)c(Cl)cc3Cl)[nH]n2)cc1` [Example 6-4], for the setting “figure in brackets (300), read-out: IC50 column: % value printed with (300)”, the inhibition at 0.3 µM came to 46.8%.
Turning to `CCN(CC)C(=O)c1cccc(CNC(=O)c2cc(NC(=O)c3cc(F)c(F)cc3Cl)[nH]n2)c1` [Example 1-119], the IC50 under setting [1] fell in the range of 100 to 300 nM.
Turning to `Cc1ccc(Cl)cc1C(=O)Nc1cc(C(=O)NCc2ccccc2)n[nH]1` [Example 4-13], the inhibition at 0.3 µM under setting [3] worked out at 38%.
With `COC(=O)CCN(C(=O)c1cc(NC(=O)c2cc(F)c(F)cc2Cl)[nH]n1)c1ccccc1` [Example 4-25], the IC50 under setting [1] is < 100 nM.
`O=C(NCc1ccccc1)c1cc(NC(=O)c2cc(Cl)ccc2F)[nH]n1` [Example 4-20]: under setting [3], the inhibition at 0.3 µM came to 3.3%.
Regarding `CN1CCN(c2ccc(CNC(=O)c3cc(NC(=O)c4cc(F)c(F)cc4Cl)[nH]n3)cn2)CC1` [Example 5-39], under setting [1], the IC50 was < 100 nM.
For `O=C(NCc1ccc(F)c(F)c1)c1cc(NC(=O)c2cc(F)c(F)cc2Cl)[nH]n1` [Example 1-22], the IC50 under setting [1] is < 100 nM.
Turning to `O=C(NCc1ccc(-c2ccccc2)nc1)c1cc(NC(=O)c2cc(F)c(F)cc2Cl)[nH]n1` [Example 2-32], under setting [1], the IC50 is < 100 nM.
Turning to `O=C(NCc1ccc(C(F)(F)F)cc1)c1cc(NC(=O)c2cc(F)c(F)cc2Cl)[nH]n1` [Example 1-29], the IC50 under setting [1] was < 100 nM.
`CC(=N)Nc1ccc(CNC(=O)c2cc(NC(=O)c3cc(F)c(F)cc3Cl)[nH]n2)cc1` [Example 6-32]: under setting [2], the IC50 was < 100 nM.
For `O=C(NCc1ccc(-c2csnn2)cc1)c1cc(NC(=O)c2cc(F)c(F)cc2Cl)[nH]n1` [Example 1-142], the IC50 under setting [1] was < 100 nM.
The same measure, in the same setting: the same measure for `O=C(NCc1cccnc1OCC(F)(F)F)c1cc(NC(=O)c2cc(F)c(F)cc2Cl)[nH]n1` [Example 1-32]: < 100 nM.
`O=C(Nc1cccc2cnccc12)c1cc(NC(=O)c2cc(F)c(F)cc2Cl)[nH]n1` [Example 5-38]: for the setting “compound concentration 100 nmol (in parentheses)”, the “inhibition rate (%) at a certain concentration” value is recorded as 15.2% (100).
Consider `O=C(NCCO)c1ccc(CNC(=O)c2cc(NC(=O)c3cc(F)c(F)cc3Cl)[nH]n2)cc1` [Example 1-48], for which the IC50 under setting [1] is < 100 nM.
For `CCCCN(CCCC)C(=O)c1cc(NC(=O)c2cc(F)c(F)cc2Cl)[nH]n1` [Example 1-93], under setting [1], the IC50 is < 100 nM.
As for `Cc1nc(-c2ccccc2)c(CNC(=O)c2cc(NC(=O)c3cc(F)c(F)cc3Cl)[nH]n2)o1` [Example 1-166], the IC50 under setting [1] was < 100 nM.
On to `O=C(NCc1ccccc1)c1cc(NC(=O)c2cc(F)ccc2Cl)[nH]n1` [Example 4-8], for which the IC50 under setting [1] lay within 100 to 300 nM.
